Source: ChEMBL document CHEMBL1201862, “PubChem BioAssay data set” (2004)
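Grown in 96-well plates, cells were treated for 48 hours with each compound at five concentrations. Insufficient inhibition: endpoint recorded as highest concentration tested. GI50 = concentration required for 50% inhibition of growth.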 The source made the active and inactive calls. Cut-off read from the data, not from the text of the source: active = GI50 up to about 1.1 µM and inactive = higher.

Tests used:
Assay in all cases: growth of human tumour cells (NCI), 48 h
HT-29 = tested on: HT-29
SW-620 = tested on: SW-620
SK-MEL-28 = tested on: SK-MEL-28
NCI/ADR-RES = tested on: NCI/ADR-RES
MDA-MB-231 = tested on: MDA-MB-231
UACC-62 = tested on: UACC-62
MDA-N = tested on: MDA-N
MOLT-4 = tested on: MOLT-4
HCT-116 = tested on: HCT-116
OVCAR-3 = tested on: OVCAR-3
RXF 393 = tested on: RXF 393
UACC-257 = tested on: UACC-257
SN12C = tested on: SN12C
HOP-62 = tested on: HOP-62
UO-31 = tested on: UO-31
Malme-3M = tested on: Malme-3M
A498 = tested on: A498
MCF7 = tested on: MCF7

Measured: GI50

CN1CCN(c2ncc3c(n2)sc2c(=O)n(-c4ccccc4)cnc23)CC1
inactive: HT-29 > 100 µM | SW-620 > 100 µM | SK-MEL-28 > 100 µM | NCI/ADR-RES > 100 µM | MDA-MB-231 > 100 µM | UACC-62 > 100 µM | MDA-N > 100 µM | MOLT-4 > 100 µM | HCT-116 > 100 µM | OVCAR-3 > 100 µM | RXF 393 > 100 µM | UACC-257 > 100 µM | SN12C > 100 µM | HOP-62 > 100 µM | UO-31 > 100 µM | Malme-3M > 100 µM | A498 > 100 µM

Oc1ccc(/N=N/c2ccc(Cl)cc2)cc1
inactive: HT-29 18.3 µM | SW-620 30.5 µM | SK-MEL-28 23 µM | NCI/ADR-RES 18.1 µM | MDA-MB-231 10.8 µM | UACC-62 11.9 µM | MDA-N 16.9 µM | MOLT-4 13.2 µM | HCT-116 15.9 µM | OVCAR-3 21.7 µM | RXF 393 15.4 µM | UACC-257 15.8 µM | SN12C 17.1 µM | HOP-62 18.4 µM | UO-31 13.7 µM | A498 17.3 µM | MCF7 17.7 µM

COc1cc(-c2oc3c(OC)c(O)c(OC)c(O)c3c(=O)c2OC)cc(OC)c1OC
inactive: HT-29 50.4 µM | SW-620 > 100 µM | SK-MEL-28 81.5 µM | NCI/ADR-RES 62.5 µM | MDA-MB-231 73.6 µM | UACC-62 24.3 µM | MDA-N 61.8 µM | MOLT-4 59.6 µM | HCT-116 68.1 µM | OVCAR-3 31.6 µM | UACC-257 82.4 µM | SN12C > 100 µM | HOP-62 28.8 µM | UO-31 17.3 µM | Malme-3M > 100 µM | A498 51.2 µM | MCF7 38 µM

CCCCCC/C=C\CCCCCCCCC(=O)c1cccc(OC)c1OC
inactive: HT-29 41.9 µM | SW-620 > 100 µM | SK-MEL-28 > 100 µM | NCI/ADR-RES 60.8 µM | MDA-MB-231 > 100 µM | UACC-62 > 100 µM | MDA-N 91.8 µM | MOLT-4 25.7 µM | HCT-116 41.7 µM | RXF 393 21 µM | UACC-257 34.4 µM | SN12C > 100 µM | HOP-62 > 100 µM | UO-31 > 100 µM | Malme-3M > 100 µM | A498 26 µM | MCF7 > 10 µM

COC(=O)CN1C(=O)C2(C(=O)OC)OC1(c1ccc([N+](=O)[O-])cc1)C1C(=O)N(c3ccccc3)C(=O)C12 (stereo not drawn)
inactive: HT-29 > 100 µM | SW-620 > 100 µM | SK-MEL-28 > 100 µM | NCI/ADR-RES > 100 µM | MDA-MB-231 > 100 µM | UACC-62 > 100 µM | MDA-N > 100 µM | MOLT-4 > 100 µM | HCT-116 > 100 µM | RXF 393 > 100 µM | UACC-257 > 100 µM | SN12C > 100 µM | HOP-62 > 100 µM | UO-31 > 100 µM | Malme-3M > 100 µM | A498 > 100 µM

N=C(N)NCCCC(NC(=O)OCCCCn1ccc(N)nc1=O)C(=O)O (stereo not drawn)
inactive: HT-29 > 100 µM | SW-620 > 100 µM | SK-MEL-28 > 100 µM | NCI/ADR-RES > 100 µM | MDA-MB-231 > 100 µM | UACC-62 > 100 µM | MDA-N > 100 µM | MOLT-4 > 100 µM | HCT-116 > 100 µM | OVCAR-3 > 100 µM | RXF 393 > 100 µM | UACC-257 > 100 µM | SN12C > 100 µM | HOP-62 > 100 µM | UO-31 > 100 µM | A498 > 100 µM | MCF7 > 100 µM

CCN(CC)C1=Nc2ccccc2-n2c(C)cnc2C1
inactive: HT-29 > 100 µM | SW-620 > 100 µM | SK-MEL-28 > 100 µM | NCI/ADR-RES > 100 µM | MDA-MB-231 > 100 µM | UACC-62 > 100 µM | MDA-N > 100 µM | MOLT-4 > 100 µM | HCT-116 > 100 µM | OVCAR-3 > 100 µM | RXF 393 > 100 µM | UACC-257 > 61.5 µM | SN12C > 100 µM | UO-31 > 88.7 µM | Malme-3M > 100 µM | A498 > 100 µM | MCF7 > 100 µM

COC(=O)C1=C(C)NC2(C)OC(C)(O)C(C(C)=O)C12C(C)=O (stereo not drawn)
inactive: HT-29 81.3 µM | SW-620 > 100 µM | SK-MEL-28 38.5 µM | NCI/ADR-RES > 100 µM | MDA-MB-231 20.7 µM | UACC-62 > 100 µM | MDA-N > 100 µM | MOLT-4 > 100 µM | HCT-116 > 100 µM | OVCAR-3 > 100 µM | RXF 393 57.7 µM | UACC-257 > 100 µM | SN12C 47.6 µM | HOP-62 > 100 µM | Malme-3M 23.4 µM | A498 60.5 µM | MCF7 > 100 µM

N#CC(NC12CC3CC(CC(C3)C1)C2)c1ccccc1 (stereo not drawn)
inactive: HT-29 > 100 µM | SW-620 > 100 µM | SK-MEL-28 > 100 µM | NCI/ADR-RES > 100 µM | MDA-MB-231 > 100 µM | UACC-62 > 100 µM | MDA-N > 100 µM | MOLT-4 > 100 µM | HCT-116 > 100 µM | OVCAR-3 > 100 µM | RXF 393 > 100 µM | UACC-257 > 100 µM | SN12C > 100 µM | HOP-62 > 100 µM | UO-31 > 100 µM | Malme-3M > 100 µM | MCF7 > 100 µM

CCN1CCC(O)(c2ccc(Oc3ccc(F)cc3)cc2)C(C(=O)c2ccc(Oc3ccc(F)cc3)cc2)C1 (stereo not drawn)
inactive: HT-29 10.6 µM | SW-620 15.6 µM | SK-MEL-28 15.8 µM | NCI/ADR-RES 10.3 µM | MDA-MB-231 13.2 µM | UACC-62 14.8 µM | MDA-N 16.9 µM | MOLT-4 14 µM | HCT-116 13.6 µM | OVCAR-3 15.2 µM | RXF 393 12.2 µM | UACC-257 15.8 µM | SN12C 14.2 µM | HOP-62 15.8 µM | Malme-3M 15.4 µM | MCF7 11.5 µM

CC(C)=CC(=O)O[C@@H]1CC(C)(C)CC2C3=CCC4[C@]56CC[C@](O)(OC5)C(C)(C)C6CC[C@@]4(C)C3(C)CC[C@]21C(=O)O (stereo partly drawn)
inactive: HT-29 38.4 µM | SW-620 > 100 µM | SK-MEL-28 > 100 µM | NCI/ADR-RES 47.6 µM | MDA-MB-231 > 100 µM | UACC-62 > 100 µM | MDA-N > 100 µM | MOLT-4 55.2 µM | HCT-116 38 µM | OVCAR-3 31.3 µM | RXF 393 > 100 µM | UACC-257 > 100 µM | SN12C 53.2 µM | HOP-62 64.3 µM | Malme-3M > 100 µM | A498 > 100 µM | MCF7 > 100 µM

CC(=O)OCC(OC(C)=O)C(OC(C)=O)C(OC(C)=O)C(/C=N\Nc1nc2ccccc2c(=O)[nH]1)=N/Nc1nc2ccccc2c(=O)[nH]1 (stereo not drawn)
inactive: HT-29 > 100 µM | SW-620 > 100 µM | SK-MEL-28 > 100 µM | NCI/ADR-RES > 100 µM | MDA-MB-231 > 100 µM | UACC-62 > 100 µM | MDA-N > 100 µM | MOLT-4 > 100 µM | HCT-116 > 100 µM | OVCAR-3 > 100 µM | RXF 393 > 100 µM | UACC-257 > 100 µM | SN12C > 100 µM | HOP-62 > 100 µM | UO-31 > 100 µM | Malme-3M > 100 µM | MCF7 > 100 µM

C=CCN1CCN([C@H](c2ccc(C(=O)N(CC)CC)cc2)c2cccc(OC)c2)CC1
inactive: HT-29 > 25 µM | SW-620 > 25 µM | SK-MEL-28 > 25 µM | NCI/ADR-RES > 25 µM | MDA-MB-231 > 25 µM | UACC-62 > 25 µM | MDA-N > 25 µM | MOLT-4 > 25 µM | HCT-116 > 25 µM | OVCAR-3 > 25 µM | SN12C > 25 µM | HOP-62 > 25 µM | UO-31 > 25 µM | Malme-3M > 25 µM | A498 > 25 µM | MCF7 > 25 µM

C/C(=N\NC(=S)NCc1ccccc1)c1nc2cccnc2[nH]1
inactive: HT-29 3.48 µM | SW-620 9.66 µM | SK-MEL-28 14.6 µM | NCI/ADR-RES 9.98 µM | MDA-MB-231 17.3 µM | UACC-62 6.53 µM | MDA-N 11.3 µM | MOLT-4 3.44 µM | HCT-116 3.69 µM | OVCAR-3 11.1 µM | UACC-257 9.62 µM | SN12C 15.7 µM | HOP-62 6.85 µM | UO-31 1.94 µM | Malme-3M 13.4 µM | A498 17.3 µM | MCF7 3.53 µM

C[N+]12C=CC=C1C(N1CCCC1)c1scc(-c3ccccc3)c12 (stereo not drawn)
inactive: HT-29 8.65 µM | SW-620 93.3 µM | SK-MEL-28 37.2 µM | NCI/ADR-RES > 100 µM | MDA-MB-231 37.8 µM | UACC-62 21 µM | MDA-N 18.8 µM | MOLT-4 19.3 µM | HCT-116 32.3 µM | OVCAR-3 7.83 µM | RXF 393 17.8 µM | SN12C 5.26 µM | HOP-62 41.7 µM | UO-31 > 100 µM | Malme-3M 11.8 µM | A498 38.5 µM | MCF7 14.8 µM

Cc1ccc(O)c(Cc2nc3ccccc3nc2-c2cccc(Cl)c2)c1
inactive: HT-29 44.3 µM | SW-620 59 µM | NCI/ADR-RES 44.1 µM | MDA-MB-231 46.3 µM | UACC-62 57.9 µM | MDA-N 29.5 µM | MOLT-4 17.3 µM | HCT-116 42.9 µM | OVCAR-3 68.9 µM | RXF 393 > 100 µM | UACC-257 74.6 µM | SN12C 55.2 µM | HOP-62 > 100 µM | UO-31 32.1 µM | Malme-3M > 100 µM | MCF7 40.8 µM
